From patent US20220348565A1, “PHARMACEUTICAL COMPOUNDS” (SENTINEL ONCOLOGY LIMITED, priority 2019, published 2022) come the findings set out here.

Holding throughout (assay): DiscoverX KinomeScreen kinase selectivity competition binding assay
In experiment [1] the target is T1, panel of ninety-seven kinases (Homo sapiens, UniProt Q9H4B4).
T1 construct: purchased DiscoverX; host or cells: T7 phage in E. coli (BL21-derived) for most kinases; HEK-293 for the rest
To be noted: PLK3; read-out: % Ctrl @ 3 μM. In outline: (§1)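 Site-directed competition binding: kinase (T7 phage-tagged or HEK-293-expressed, DNA-tagged) captured on immobilized biotinylated ligand beads, with compound at 3000 nM. Bound kinase eluted and quantified by qPCR. Reported as % Ctrl, with DMSO as 100% and control compound as 0%.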

Experiment [2] concerns the target T2, panel of ninety-seven kinases (Homo sapiens, UniProt O15111).
T2 construct: purchased DiscoverX; host or cells: T7 phage in E. coli (BL21-derived) for most kinases; HEK-293 for the rest
To be noted: CHUK; read-out: % Ctrl @ 3 μM. The gist of the method:
as §1

The target in experiment [3] is T3, panel of ninety-seven kinases (Homo sapiens, UniProt P29317).
T3 construct: purchased DiscoverX; host or cells: T7 phage in E. coli (BL21-derived) for most kinases; HEK-293 for the rest
To be noted: EPHA2; read-out: % Ctrl @ 3 μM. In outline:
as §1

In experiment [4] the target is T4, panel of ninety-seven kinases (Homo sapiens, UniProt Q05397).
T4 construct: purchased DiscoverX; host or cells: T7 phage in E. coli (BL21-derived) for most kinases; HEK-293 for the rest
To be noted: PTK2; read-out: % Ctrl @ 3 μM. The gist of the method: as §1

The target of experiment [5] is T5, panel of ninety-seven kinases (Homo sapiens, UniProt Q00536).
T5 construct: purchased DiscoverX; host or cells: T7 phage in E. coli (BL21-derived) for most kinases; HEK-293 for the rest
To be noted: CDK16; read-out: % Ctrl @ 3 μM. The gist of the method:
as §1

Experiment [6] has as its target T6, panel of ninety-seven kinases (Homo sapiens, UniProt P78368).
T6 construct: purchased DiscoverX; host or cells: T7 phage in E. coli (BL21-derived) for most kinases; HEK-293 for the rest
To be noted: CSNK1G2; read-out: % Ctrl @ 3 μM. The gist of the method: as §1

Experiment [7] deals with T7, panel of ninety-seven kinases (Homo sapiens, UniProt P08069).
T7 construct: purchased DiscoverX; host or cells: T7 phage in E. coli (BL21-derived) for most kinases; HEK-293 for the rest
To be noted: IGF1R; read-out: % Ctrl @ 3 μM. The gist of the method:
as §1

The target of experiment [8] is T8, panel of ninety-seven kinases (Homo sapiens, UniProt O15075).
T8 construct: purchased DiscoverX; host or cells: T7 phage in E. coli (BL21-derived) for most kinases; HEK-293 for the rest
To be noted: DCLK1; read-out: % Ctrl @ 3 μM. In outline: as §1

In experiment [9] the target is T9, panel of ninety-seven kinases (Homo sapiens, UniProt P06213).
T9 construct: purchased DiscoverX; host or cells: T7 phage in E. coli (BL21-derived) for most kinases; HEK-293 for the rest
To be noted: INSR; read-out: % Ctrl @ 3 μM. In outline: as §1

Experiment [10] addresses T10, panel of ninety-seven kinases (Homo sapiens, UniProt Q13177).
T10 construct: purchased DiscoverX; host or cells: T7 phage in E. coli (BL21-derived) for most kinases; HEK-293 for the rest
To be noted: PAK2; read-out: % Ctrl @ 3 μM. The gist of the method: as §1

Experiment [11] addresses T11, panel of ninety-seven kinases (Homo sapiens, UniProt P51812).
T11 construct: purchased DiscoverX; host or cells: T7 phage in E. coli (BL21-derived) for most kinases; HEK-293 for the rest
To be noted: RPS6KA3; read-out: % Ctrl @ 3 μM. In outline: as §1

In experiment [12] the target is T12, panel of ninety-seven kinases (Homo sapiens, UniProt P04049).
T12 construct: purchased DiscoverX; host or cells: T7 phage in E. coli (BL21-derived) for most kinases; HEK-293 for the rest
To be noted: RAF1; read-out: % Ctrl @ 3 μM. The gist of the method:
as §1

Experiment [13] deals with T13, panel of ninety-seven kinases (Homo sapiens, UniProt Q8NI60).
T13 construct: purchased DiscoverX; host or cells: T7 phage in E. coli (BL21-derived) for most kinases; HEK-293 for the rest
To be noted: CABC1; read-out: % Ctrl @ 3 μM. The gist of the method:
as §1

The target of experiment [14] is T14, panel of ninety-seven kinases (Homo sapiens, UniProt Q9UM73).
T14 construct: purchased DiscoverX; host or cells: T7 phage in E. coli (BL21-derived) for most kinases; HEK-293 for the rest
To be noted: ALK; read-out: % Ctrl @ 3 μM. The gist of the method: as §1

For experiment [15], the target named is T15, panel of ninety-seven kinases (Homo sapiens, UniProt O96013).
T15 construct: purchased DiscoverX; host or cells: T7 phage in E. coli (BL21-derived) for most kinases; HEK-293 for the rest
To be noted: PAK4; read-out: % Ctrl @ 3 μM. The gist of the method: as §1

In experiment [16] the target is T16, panel of ninety-seven kinases (Homo sapiens, UniProt Q02750).
T16 construct: purchased DiscoverX; host or cells: T7 phage in E. coli (BL21-derived) for most kinases; HEK-293 for the rest
To be noted: MAP2K1; read-out: % Ctrl @ 3 μM. In outline: as §1

Experiment [17] addresses T17, panel of ninety-seven kinases (Homo sapiens, UniProt Q9H093).
T17 construct: purchased DiscoverX; host or cells: T7 phage in E. coli (BL21-derived) for most kinases; HEK-293 for the rest
To be noted: NUAK2; read-out: % Ctrl @ 3 μM. In outline: as §1

For experiment [18], the target named is T18, panel of ninety-seven kinases (Homo sapiens, UniProt O60674).
T18 construct: purchased DiscoverX; host or cells: T7 phage in E. coli (BL21-derived) for most kinases; HEK-293 for the rest
To be noted: JAK2; read-out: % Ctrl @ 3 μM. In outline:
as §1

Experiment [19] has as its target T19, panel of ninety-seven kinases (Homo sapiens, UniProt P22607).
T19 construct: purchased DiscoverX; host or cells: T7 phage in E. coli (BL21-derived) for most kinases; HEK-293 for the rest
To be noted: FGFR3; read-out: % Ctrl @ 3 μM. The gist of the method:
as §1

In experiment [20] the target is T20, panel of ninety-seven kinases (Homo sapiens, UniProt Q00526).
T20 construct: purchased DiscoverX; host or cells: T7 phage in E. coli (BL21-derived) for most kinases; HEK-293 for the rest
To be noted: CDK3; read-out: % Ctrl @ 3 μM. In outline: as §1

T9 sequence (P06213 28-1382): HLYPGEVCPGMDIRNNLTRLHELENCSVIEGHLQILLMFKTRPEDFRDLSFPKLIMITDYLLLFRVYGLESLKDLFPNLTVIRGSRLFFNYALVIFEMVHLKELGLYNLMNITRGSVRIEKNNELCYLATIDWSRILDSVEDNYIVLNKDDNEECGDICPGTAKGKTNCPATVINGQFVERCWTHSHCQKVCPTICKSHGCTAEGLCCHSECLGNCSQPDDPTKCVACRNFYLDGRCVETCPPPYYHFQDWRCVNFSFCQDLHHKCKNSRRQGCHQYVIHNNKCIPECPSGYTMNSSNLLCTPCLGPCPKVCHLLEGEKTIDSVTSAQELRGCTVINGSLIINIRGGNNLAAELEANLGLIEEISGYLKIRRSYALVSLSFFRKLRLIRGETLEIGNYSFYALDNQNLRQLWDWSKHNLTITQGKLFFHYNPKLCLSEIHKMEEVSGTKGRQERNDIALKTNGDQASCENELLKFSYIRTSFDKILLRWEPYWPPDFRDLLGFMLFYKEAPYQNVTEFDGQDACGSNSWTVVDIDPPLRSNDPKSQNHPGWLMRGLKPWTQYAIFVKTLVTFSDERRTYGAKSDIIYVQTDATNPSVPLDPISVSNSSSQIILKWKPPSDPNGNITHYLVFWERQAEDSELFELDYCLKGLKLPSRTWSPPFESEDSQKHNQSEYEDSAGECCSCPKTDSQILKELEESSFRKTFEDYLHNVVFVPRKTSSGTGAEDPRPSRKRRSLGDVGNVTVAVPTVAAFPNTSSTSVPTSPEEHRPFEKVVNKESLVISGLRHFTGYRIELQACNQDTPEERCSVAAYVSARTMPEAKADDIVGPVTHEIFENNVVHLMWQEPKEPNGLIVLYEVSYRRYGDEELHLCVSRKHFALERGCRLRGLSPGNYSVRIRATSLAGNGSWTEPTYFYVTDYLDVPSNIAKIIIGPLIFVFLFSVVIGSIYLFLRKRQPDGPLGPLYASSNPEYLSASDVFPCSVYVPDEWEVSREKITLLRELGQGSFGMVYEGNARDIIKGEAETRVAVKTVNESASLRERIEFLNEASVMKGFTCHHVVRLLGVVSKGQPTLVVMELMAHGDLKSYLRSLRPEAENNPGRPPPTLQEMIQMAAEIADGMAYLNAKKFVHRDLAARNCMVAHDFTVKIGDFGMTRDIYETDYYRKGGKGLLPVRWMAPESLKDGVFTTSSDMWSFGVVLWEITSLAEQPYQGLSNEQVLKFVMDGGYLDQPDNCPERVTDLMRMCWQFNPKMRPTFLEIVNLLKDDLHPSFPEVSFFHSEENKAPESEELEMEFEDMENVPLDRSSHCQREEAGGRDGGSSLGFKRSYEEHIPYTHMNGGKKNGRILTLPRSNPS
T7 sequence (P08069 31-1367): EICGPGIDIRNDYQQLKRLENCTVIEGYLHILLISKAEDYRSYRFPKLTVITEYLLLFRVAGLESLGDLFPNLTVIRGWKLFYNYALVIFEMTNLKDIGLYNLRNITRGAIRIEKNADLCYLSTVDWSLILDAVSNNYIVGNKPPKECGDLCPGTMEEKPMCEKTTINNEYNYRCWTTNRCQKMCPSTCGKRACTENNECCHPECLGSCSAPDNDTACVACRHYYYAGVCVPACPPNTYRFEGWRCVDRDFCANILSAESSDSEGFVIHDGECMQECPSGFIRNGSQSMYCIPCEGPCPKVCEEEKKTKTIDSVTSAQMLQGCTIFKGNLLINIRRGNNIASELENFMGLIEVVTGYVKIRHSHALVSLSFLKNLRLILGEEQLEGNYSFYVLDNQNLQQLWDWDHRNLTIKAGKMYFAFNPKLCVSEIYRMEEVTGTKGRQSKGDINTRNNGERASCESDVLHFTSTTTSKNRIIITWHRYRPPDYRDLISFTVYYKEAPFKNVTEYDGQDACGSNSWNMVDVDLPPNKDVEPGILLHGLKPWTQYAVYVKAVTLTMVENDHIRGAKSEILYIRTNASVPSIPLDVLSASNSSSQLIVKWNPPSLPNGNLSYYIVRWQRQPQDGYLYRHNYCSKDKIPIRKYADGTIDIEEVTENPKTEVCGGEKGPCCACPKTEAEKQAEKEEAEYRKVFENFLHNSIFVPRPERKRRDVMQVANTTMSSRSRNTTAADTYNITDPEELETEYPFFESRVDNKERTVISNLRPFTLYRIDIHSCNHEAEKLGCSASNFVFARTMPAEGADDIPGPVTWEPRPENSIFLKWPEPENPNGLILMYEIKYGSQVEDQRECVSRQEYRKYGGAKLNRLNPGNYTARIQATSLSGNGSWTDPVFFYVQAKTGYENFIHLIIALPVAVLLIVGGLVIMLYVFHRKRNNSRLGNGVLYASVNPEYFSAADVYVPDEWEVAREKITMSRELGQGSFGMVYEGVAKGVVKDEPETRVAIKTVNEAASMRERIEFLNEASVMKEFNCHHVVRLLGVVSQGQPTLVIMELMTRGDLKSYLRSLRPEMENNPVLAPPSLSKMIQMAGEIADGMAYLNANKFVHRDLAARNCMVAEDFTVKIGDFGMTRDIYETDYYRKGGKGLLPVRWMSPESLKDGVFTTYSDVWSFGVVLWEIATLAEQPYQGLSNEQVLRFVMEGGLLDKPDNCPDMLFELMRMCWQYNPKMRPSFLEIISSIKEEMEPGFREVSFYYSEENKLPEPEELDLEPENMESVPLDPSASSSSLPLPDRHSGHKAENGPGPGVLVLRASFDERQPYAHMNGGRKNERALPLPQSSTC
T11 sequence (P51812 whole entry): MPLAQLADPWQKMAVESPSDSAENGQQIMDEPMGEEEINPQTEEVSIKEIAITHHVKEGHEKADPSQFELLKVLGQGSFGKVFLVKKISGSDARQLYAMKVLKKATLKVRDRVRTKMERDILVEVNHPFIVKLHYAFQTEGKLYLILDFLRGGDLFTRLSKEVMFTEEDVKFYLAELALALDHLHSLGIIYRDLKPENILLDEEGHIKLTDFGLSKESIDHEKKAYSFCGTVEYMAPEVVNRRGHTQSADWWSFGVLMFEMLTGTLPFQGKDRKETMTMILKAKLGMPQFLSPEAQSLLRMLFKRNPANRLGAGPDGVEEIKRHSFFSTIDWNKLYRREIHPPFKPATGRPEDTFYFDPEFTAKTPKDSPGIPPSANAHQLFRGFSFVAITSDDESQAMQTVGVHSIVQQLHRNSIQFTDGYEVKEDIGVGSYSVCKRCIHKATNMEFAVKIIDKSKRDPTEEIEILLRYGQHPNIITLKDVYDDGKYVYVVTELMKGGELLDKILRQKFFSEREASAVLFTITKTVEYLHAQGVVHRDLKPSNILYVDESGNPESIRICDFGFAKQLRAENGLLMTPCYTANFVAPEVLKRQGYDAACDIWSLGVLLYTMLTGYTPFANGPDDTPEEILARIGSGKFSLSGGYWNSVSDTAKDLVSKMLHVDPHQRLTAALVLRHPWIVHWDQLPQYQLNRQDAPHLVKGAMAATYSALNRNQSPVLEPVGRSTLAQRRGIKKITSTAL
T13 sequence (Q8NI60 163-647): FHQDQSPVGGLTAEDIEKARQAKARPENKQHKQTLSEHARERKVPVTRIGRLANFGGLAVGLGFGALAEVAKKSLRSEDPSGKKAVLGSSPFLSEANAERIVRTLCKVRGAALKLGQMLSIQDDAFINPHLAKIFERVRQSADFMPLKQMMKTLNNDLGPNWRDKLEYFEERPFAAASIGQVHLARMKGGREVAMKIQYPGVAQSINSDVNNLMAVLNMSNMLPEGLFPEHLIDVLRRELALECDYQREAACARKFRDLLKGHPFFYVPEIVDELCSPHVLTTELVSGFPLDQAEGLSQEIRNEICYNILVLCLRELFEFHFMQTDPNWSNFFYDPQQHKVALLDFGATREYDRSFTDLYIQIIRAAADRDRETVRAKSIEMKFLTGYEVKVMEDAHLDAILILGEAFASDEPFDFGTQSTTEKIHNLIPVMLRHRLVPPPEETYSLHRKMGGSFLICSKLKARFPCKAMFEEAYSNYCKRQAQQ
T19 sequence (P22607 23-806): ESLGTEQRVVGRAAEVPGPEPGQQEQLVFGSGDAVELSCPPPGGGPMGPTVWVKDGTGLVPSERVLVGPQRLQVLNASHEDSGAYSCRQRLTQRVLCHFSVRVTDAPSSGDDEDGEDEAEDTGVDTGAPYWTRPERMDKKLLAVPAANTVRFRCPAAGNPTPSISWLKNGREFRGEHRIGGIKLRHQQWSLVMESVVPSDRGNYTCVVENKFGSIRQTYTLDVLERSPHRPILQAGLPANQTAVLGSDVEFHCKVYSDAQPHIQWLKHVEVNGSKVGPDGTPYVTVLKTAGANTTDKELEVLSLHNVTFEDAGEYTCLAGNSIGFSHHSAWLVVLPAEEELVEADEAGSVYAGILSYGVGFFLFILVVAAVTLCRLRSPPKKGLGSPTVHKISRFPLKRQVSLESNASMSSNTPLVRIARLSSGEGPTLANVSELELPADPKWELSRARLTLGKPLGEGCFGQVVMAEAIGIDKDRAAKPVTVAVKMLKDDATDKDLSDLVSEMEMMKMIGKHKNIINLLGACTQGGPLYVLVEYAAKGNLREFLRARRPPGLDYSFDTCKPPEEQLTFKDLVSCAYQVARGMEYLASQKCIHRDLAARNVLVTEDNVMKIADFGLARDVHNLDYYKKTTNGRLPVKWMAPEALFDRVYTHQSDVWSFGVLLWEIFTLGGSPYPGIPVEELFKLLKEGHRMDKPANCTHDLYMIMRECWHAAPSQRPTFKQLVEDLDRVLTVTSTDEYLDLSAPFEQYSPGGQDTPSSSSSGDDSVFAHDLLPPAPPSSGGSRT
T20 sequence (Q00526 whole entry): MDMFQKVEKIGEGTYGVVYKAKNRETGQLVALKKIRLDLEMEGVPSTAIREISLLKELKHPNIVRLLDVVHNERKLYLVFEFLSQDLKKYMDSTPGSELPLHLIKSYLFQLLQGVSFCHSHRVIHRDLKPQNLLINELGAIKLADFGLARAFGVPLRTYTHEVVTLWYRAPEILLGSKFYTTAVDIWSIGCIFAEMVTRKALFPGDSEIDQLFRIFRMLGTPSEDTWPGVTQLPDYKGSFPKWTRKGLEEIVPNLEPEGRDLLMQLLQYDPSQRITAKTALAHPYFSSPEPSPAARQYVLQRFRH

Consider `CN(C)CCNC(=O)c1ccc(-c2ccc(-c3ccc(Cl)cc3)n2-c2ccccc2C(F)(F)F)cc1` (single isomer, unassigned) [Atropisomer A-2, 4-[5-(4-chlorophenyl)-1-[2-(trifluoromethyl)phenyl]pyrrol-2-yl]-N-[2-(dimethylamino)ethyl]benzamide], for which the percent of control kinase binding to immobilized ligand at 3 µM came out at 87% in experiment [1]; 100% in experiment [2]; 100% in [3]; 98% in experiment [4]; 100% in [5]; 100% in [6]. Also, the percent of control kinase binding to immobilized ligand at 3 µM in [7] came to 100%; in experiment [8] it was 87%; in experiment [9], 100%; in [10], 100%; in [11], 100%; in experiment [12] it was 92%. Also, the percent of control kinase binding to immobilized ligand at 3 µM in experiment [13] is 63%; in experiment [14] it was 89%; in experiment [15], 100%; in experiment [16] it was 84%; in experiment [17], 99%; in experiment [18], 80%. In addition, the percent of control kinase binding to immobilized ligand at 3 µM in [19] was determined as 92%; in [20] it was 100%.
